Legend:
[1] = tested on: mice; assay: Conditioned place preference testing with i.v. β-endorphin; type: in vivo; conditions: i.v. tail vein
Excerpt: To test whether it is plausible that skin-derived β-endorphin may cause central effects we decided to assess whether peripherally administered β-endorphin injected i.v. into the tail vein could cause conditioned place preference.

[2] = tested on: B16, B16-F0, Melan-a and PAM212 mouse cell lines; assay: RT-qPCR of POMC and Mitf after forskolin treatment, mouse cell lines; type: cell-based; conditions: 20 μM forskolin; mouse cells
Procedure: (§1) UACC62 and UAC257 human melanoma cells were obtained from NCI and grown in RPMI (Cellgro) medium supplemented with 10% fetal bovine serum and penicillin/streptomycin/L-glutamine. Malme-3M human melanoma and B16 mouse melanoma cell line were obtained from ATCC and grown in DEMEM (Cellgro) medium supplemented with 5% fetal bovine serum and 1% penicillin/streptomycin/L-glutamine. Melan-a cells were kindly provided by Dorothy C. Bennett and were grown in Ham's F10 medium supplemented with 10% fetal bovine serum and 1% penicillin/streptomycin/L-glutamine. The mouse keratinocyte cell line PAM212 was generously shared by Dr. Paolo Dotto (Massachusetts General Hospital and Harvard Medical School, Boston, Mass.) and grown in 10% fetal bovine serum and 1% penicillin/streptomycin/L-glutamine. Cells were grown to 70% confluence prior to use in experiments in humidified incubators supplemented with 5% CO2.
(§2) After forskolin (Sigma) treatment at 20 μM final concentration at the stated times, mRNA was isolated using RNeasy® plus minikits from Qiagen, and was subjected to KAPA SYBR® FAST One-Step qRT-PCR (Kapa Biosystems). For each reaction, 100 ng of RNA was subjected to the following steps: reverse transcription for 30 min at 48° C., inactivation for 10 min at 95° C., expansion for 40 cycles (15 sec at 95° C. and 30 sec at 60° C.). The results are the average of three independent experiments. […]

[3] = tested on: Malme-3M, UAC257 and UACC62 human melanoma cell lines; assay: RT-qPCR of POMC after forskolin treatment, human melanoma cell lines; type: cell-based; conditions: 20 μM forskolin; human samples
Procedure: as §1, §2

[4] = tested on: β-endorphin; assay: Plasma β-endorphin after topical forskolin treatment; type: in vivo; conditions: male mice, non-K14-SCF vs K14-SCF/Mc1r^e/e
Procedure: Blood samples from mice were collected in EDTA microvotte tubes containing 0.6 UTI aprotinin (Sigma). Samples were spun at 3500 rpm at 4° C. for 20 min and the plasma (top layer) was isolated and transferred to a new tube and stored at −80° C. until β-endorphin measurement was performed. β-Endorphin was measured using a radioimmunoassay from Phoenix Pharmaceuticals, following the manufacturer's instructions.
All experiments were done in C57BL/6J (Jackson laboratory) mice. C57BL/6J Mc1r^e/e (described at Robbins L S, et al., Pigmentation phenotypes of variant extension locus alleles result from point mutations that alter MSH receptor function. Cell. 1993 Mar. 26; 72(6) 72, 827-834.) were crossed with K14-Scf transgenic mice as previously reported (Kunisada T, et. al., Development. 1998 August; 125(15):2915-23.). Mice were 8 weeks old at the start of each experiment.
A crude extract of Coleus forskohlii root preparation was used as a working source of forskolin (ATZ Natural, Edgewater, N.J.) for the topical treatment of this drug (Lin C B, et. al., Modulation of microphthalmia-associated transcription factor gene expression alters skin pigmentation. J Invest Dermatol 119, 1330-1340 (2002)). […] Samples were processed and β-endorphin was measured.

Molecule	conditioned place preference (time spent in the white box) [1]	time of peak Mitf mRNA expression after treatment [2]	time of peak POMC mRNA expression after treatment [2]	time point of increase of POMC after treatment [3]	β-endorphin fold induction, comparison of genotypes [4]
β-endorphin (YGGFMTSEKSQTPLVTLFKNAIIKNAYKKGE; Beta-endorphin; UniProt P01189 237-267, looked up) [endogenous opioid peptide, administered i.v. through the tail vein]	spent more time in the white box after conditioning	–	–	–	–
C=C[C@@]1(C)CC(=O)[C@]2(O)[C@@]3(C)[C@@H](O)CCC(C)(C)[C@@H]3[C@H](O)[C@H](OC(C)=O)[C@@]2(C)O1 [forskolin]	–	2 h	8 h	2 to 4 h	higher fold induction in the non-K14-SCF mice compared to the K14-SCF/Mc1r^e/e

Source: patent publication US20190083455A1, “METHODS AND COMPOSITIONS FOR THE MODULATION OF BETA-ENDORPHIN LEVELS” (The General Hospital Corporation, priority 2014, published 2019)
